The text below walks through data of patent US12005128B1, “Near infrared small molecule probes for the detection of cellular senescence” (UNM Rainforest Innovations, priority 2019, dated 2024).

Data set [1] deals with β-gal in LacZ(+) cells (CT26.CL25). Kind of data set: Flow cytometry detection of β-gal in LacZ(+) live cells. The class given is cell-based, mouse. The note with it: CT26.CL25, 1 hour and 4 hours, probe 10 μM, λex=640 nm. The protocol:
FIG. 13 is a graph showing flow cytometry detection of β-gal by the NIR-BG probe in LacZ(+) cells (CT26.CL25) probe (10 μM), λex=640 nm.
(§1) FIG. 15 depicts the quantification of the mean fluorescence intensity in FIGS. 13 and 14.

In data set [2] the test system is CT26.WT cells. Kind of data set: Flow cytometry, negative control cells. The data set is classed as cell-based, mouse. The conditions noted are these: same treatment, probe 10 μM, λex=640 nm. The protocol: FIG. 14 is a graph showing flow cytometry detection of negative control CT26.WTcells probe (10 μM), λex=640 nm.
as §1

For data set [3], the system named is CT26.CL25 cells. Kind of data set: Confocal fluorescence microscopy of LacZ(+) live cells. The data set is classed as cell-based, mouse.
Description: (§6) In order to see whether our NIR-BG probe can be used for β-gal detection in live cells, we chose an engineered cell line that stably express LacZ(+), the gene that encodes β-gal. CT26.CL25, a mouse colon fibroblast carcinoma cell line that express β-gal, was therefore used in our initial live cell experiments. […] Cell samples after incubating with our NIR-BG probe were analyzed using flow cytometry (FIG. 13-15) and confocal microscopy (not shown).
Data set [4] deals with CT26.WT cells. Kind of data set: Confocal fluorescence microscopy, wild type control cells. The class given is cell-based, mouse. The conditions noted are these: after 4-hour incubation.
Description: as §6
Data set [5] concerns HeLa cells. Kind of data set: Flow cytometry detection of senescence in drug or radiation treated cancer cells. The data set is classed as cell-based, human. The protocol: FIG. 16 is a graph showing detection of senescence in human cancer cells via flow cytometry of HeLa cells without treatment, or with CPT, CPT/CHX, or radiation treatment. Probe concentration, 10 μM. λex=640 nm; PerCP bandpass filter at 675/25 nm. ***P<0.001.
(§2) With the confidence of our probe being able to detect β-gal in live cells, we moved further to evaluate whether it could differentiate senescent cells and normal cells. Human cervical cancer cells (HeLa) and metastatic breast cancer cells (MCF7), were used in all four groups of cells evaluated. Senescence in HeLa and MCF7 cells were induced using camptothecin (CPT), an inhibitor of DNA topoisomerase I that could cause lethal DNA strand breaks^59. […] Radiation therapy is another effective method for cancer treatment in clinic; it can also induce cell cycle arrest leading to senescence. All four groups of cells, with no drug treatment, with CPT treatment, with both CPT and CHX treatment, or with 10 Gy radiation treatment, were then incubated with our NIR-BG probe, followed by flow cytometry (FIGS. 16-19).
(In flow cytometry, cells or beads pass a laser one at a time.)

Data set [6] concerns MCF7 cells. The data set is described as above. The data set is classed as cell-based, human. As for the experimental part: FIG. 18 is a graph showing Flow cytometry of MCF7 cells without treatment, or with CPT, CPT/CHX, or radiation treatment. Probe concentration, 10 μM. λex=640 nm; PerCP bandpass filter at 675/25 nm. ***P<0.001.
as §2

The test system of data set [7] is HeLa cells. Kind of data set: Confocal microscopy of normal and senescent cells. The class given is cell-based, human. The source says:
(§3) Since SABG is localized in the lysosome, we then performed confocal microscopy of the normal and senescent HeLa or MCF7 cells (Not shown). […] X-gal staining also verified the existence of SABG in cells after chemotherapy and radiation therapy.

In data set [8] the test system is MCF7 cells. Kind of data set: Confocal microscopy of normal and senescent cells. The data set is classed as cell-based, human.
Description: as §3

Data set [9] deals with β-galactosidase. An excerpt:
FIG. 25A is absorbance and emission spectra of the unactivated NIR-BG probe by β-galactosidase.
FIG. 25B is absorbance and emission spectra of the activated NIR-BG probe by β-galactosidase.

The subject of data set [10] is CT26.CL25 and CT26.WT tumors. Kind of data set: Fluorescence imaging of CT26 tumors with and without active β-gal. The class given is in vivo, mice. An excerpt:
In a preliminary experiment, we used the genetically modified mice colon cancer cell line CT26 to determine whether NIR-BG could differentiate tumors with and without active β-gal (Not shown). […] We also confirmed β-gal expression in resected whole tumor and tumor slides (Not shown).

For data set [11], the system named is HeLa tumors. Kind of data set: Fluorescence imaging of chemotherapy-induced senescence in HeLa xenografts (NIR-BG). The data set is classed as in vivo, mice. The conditions noted are these: 675 nm excitation and 720 nm emission. As for the experimental part: We then moved on to HeLa xenografted mice models to see whether probe NIR-BG could visualize chemotherapy-induced senescence in tumors. (FIGS. 26-28) Tumor-bearing mice were first systemically treated with CPT or saline before the probe NIR-BG was injected. […] We were delighted to find that NIR-BG behaved similarly in the drug-treated mice (with drug-induction triggered expression of β-gal) to the CT26 tumor models (with genetically expressed β-gal). […] While not depicted, resected intact whole tumor staining, histochemical staining with X-gal and immunofluorescent staining of tumor tissue with antibodies against β-gal further confirmed the probe activation in senescent tumors.

The subject of data set [12] is CT26.CL25 cells.
Description: (§7) In order to see whether our NIR-BG probe can be used for β-gal detection in live cells, we chose an engineered cell line that stably express LacZ(+), the gene that encodes β-gal. […] Cell samples after incubating with our NIR-BG probe were analyzed using flow cytometry (FIG. 13-15) and confocal microscopy (not shown).
Data set [13] has as its system CT26.WT cells.
Description: as §7
Data set [14] relates to HeLa cells. Kind of data set: Imaging of β-gal in senescent and normal HeLa cells by NIR-BG1 and NIR-BG2. The class given is cell-based, human. The note with it: for NIR signal in normal cells: normal HeLa cells.
In data set [15] the test system is CT26.CL25 cells. Kind of data set: Fluorescence microscope imaging of LacZ(+) cells by NIR-BG1 and NIR-BG2. The data set is classed as cell-based, mouse. An excerpt: (§4) In order to further verify that our probe can specifically detect β-gal in cells, CT26.CL25 cells were imaged with our probes and compared with the CT26.WT cells.
For data set [16], the system named is CT26.WT cells. Kind of data set: Fluorescence microscope imaging of wild type cells by NIR-BG1 and NIR-BG2. The data set is classed as cell-based, mouse.
Description: as §4

Data set [17] deals with HeLa tumors. Kind of data set: HeLa xenografts imaging of senescence by NIR-BG1 and NIR-BG2. The data set is classed as in vivo, mice. The note with it: for fluorescence of senescent tumor relative to normal tumor: CPT vs saline, quantification of optical imaging; for fluorescence of senescent tumor relative to normal tumor / fluorescence of CPT treated tumor compared to saline treated tumor: tail vein injection. The protocol: HeLa xenografts imaging was successfully performed to further evaluate the capability of NIR-BG1 and NIR-BG2 to visualize senescence in vivo. HeLa tumor-bearing mice were treated with CPT or saline to induce the senescent cancer cells. […] Ex vivo imaging and quantitative analysis of the tumors and organs further confirmed the in vivo imaging results.

The test system of data set [18] is β-gal. The note with it: cited from earlier work.
Data set [19] relates to HeLa tumors. Kind of data set: HeLa tumor growth with and without CPT treatment. The conditions noted are these: HeLa xenografted mice, systemic treatment. The data set is classed as in vivo.
Description: (The tumors of control group reached the maximum volume limitation and were imaged and euthanized.)
Data set [20] concerns HeLa cells. Kind of data set: Western blot of cell lysates for β-gal, p16 and p21. The data set is classed as cell-based, human. The source says:
FIG. 20 is a western blot of cell lysates of β-gal, p16, and p21 expression in HeLa cells without drug treatment, with CPT or radiation treatment. ***P<0.001, **P<0.005.
FIG. 21 is a quantification of FIG. 20.
(§5) Cell cycle inhibitors p21 and p16 are often expressed by senescent cells^1. Therefore, we examined the cell lysates of all cell samples from the imaging studies using Western blot (FIGS. 20-24). […] In addition to HeLa cells, MCF7 cells also expressed higher levels of p16 and p21 upon CPT treatment (FIGS. 22, 23). The Western blot results confirmed the senescent state of these drug or radiation treated cells used in the imaging experiments.
A general note: Immunoblotting shows a protein as a band on a membrane.

Data set [21] relates to MCF7 cells. The description is as above. The class given is cell-based, human.
Description: FIG. 22 is a western blot of β-gal, p16, and p21 expression in MCF7 cells without drug treatment, with CPT or radiation treatment. ***P<0.001, **P<0.005.
FIG. 23 is a quantification of FIG. 22.
as §5

Regarding `CCC[N+]1=C(/C=C/C2=C3Oc4cc(O[C@@H]5O[C@H](CO)[C@H](O)[C@H](O)[C@H]5O)ccc4C=C3CCC2)C(C)(C)c2ccccc21` [NIR-BG], the results for the flow cytometry fluorescence entry in data set [1] and in data set [2] were “obvious fluorescence” and “only background signal”, respectively. Also, the “colocalization of NIR signal with β-gal expression” value in data set [3] (CT26.CL25) is “highly colocalized”. For the same molecule, the confocal fluorescence signal entry in [3] (CT26.CL25, 1-hour probe treatment) was “obvious”. The “confocal fluorescence in the NIR channel” value in data set [4] is reported as “no fluorescence”. Besides, the “flow cytometry fluorescence of CPT or radiation treated cells compared to untreated control cells” value in data set [5] (probe 10 μM, λex=640 nm) is “significantly higher fluorescence”; in data set [6] (MCF7, probe 10 μM, λex=640 nm), “significantly higher fluorescence”. Further, the “colocalization of probe signal with lysosome and β-gal in senescent cells” value in data set [7] and in data set [8] was “well colocalized” in each case. For the same molecule, the “confocal fluorescence in CPT or radiation treated cells versus control cells without treatment” value in data set [7] and in [8] was “strikingly higher” throughout. In [9] (activated probe), this molecule yielded a maximal absorption of 680 nm. Also, the maximal emission in [9] (activated probe) is reported as 710 nm. Further, the absorption peak entry in [9] (unactivated probe) is listed as “around 640 nm”. Moreover, in data set [9] (unactivated probe), the emission peak result was “around 660 nm”. Further, the “difference in tumor signal, CT26.CL25 versus CT26.WT tumors” value in data set [10] (640 nm excitation and 680 nm emission) is “minimal”. Besides, in data set [10] (1 h after probe injection, 675 nm excitation and 720 nm emission), the “tumor signal, LacZ(+) CT26.CL25 versus CT26.WT tumors” value is on record as “significantly higher signals”. Further, the “tumor signal of activated form, CPT treatment versus saline” value in data set [11] is on record as “significantly higher signal”. The “toxicity in cell culture (cell viability)” value in data set [12] and in [13] was “did not appear toxic” throughout.
Consider `C[C@@H]1C[C@@H]([C@H](O)CC2CC(=O)NC(=O)C2)C(=O)[C@@H](C)C1` [CHX, cycloheximide, reference compound], for which the “NIR-BG fluorescence in cells treated with both CPT and CHX compared to the CPT-treated group” value in data set [5] and in [6] (MCF7) was “significantly reduced” throughout.
In the case of `CCC[N+]1=C(/C=C/C2=C3Oc4cc(OCc5ccc(O[C@@H]6O[C@H](CO)[C@H](O)[C@H](O)[C@H]6O)cc5)ccc4C=C3CCC2)C(C)(C)c2ccccc21` [NIR-BG1], in data set [14], the “NIR signal in normal cells” value is listed as “no significant signal”. In addition, the “NIR signal in senescent cells” value in data set [14] (senescent HeLa cells) is “showed NIR signals”. For the same molecule, in [15], the NIR fluorescence result was “high NIR fluorescence”. Also, in [16], the “signal in the NIR channel” value is recorded as “background signal”. Besides, in data set [17], the “fluorescence of senescent tumor relative to normal tumor” value is 2.84 times and the “fluorescence of CPT treated tumor compared to saline treated tumor” value was “significantly increased fluorescence”.
As for `CCC[N+]1=C(/C=C/C2=C3Oc4cc(OCc5ccc(O[C@@H]6O[C@H](CO)[C@H](O)[C@H](O)[C@H]6O)cc5)c(C(F)F)cc4C=C3CCC2)C(C)(C)c2ccccc21` [NIR-BG2], in data set [14], the “NIR signal in normal cells” value was “no significant signal”. Besides, in [14] (senescent HeLa cells), the “NIR signal compared with NIR-BG1” value is recorded as “significantly higher” and the “NIR signal in senescent cells” value is reported as “showed NIR signals”. Further, in data set [15], the NIR fluorescence entry was “high NIR fluorescence” and the “NIR signal compared with NIR-BG1” value was “significantly higher”. Further, in data set [16], the “signal in the NIR channel” value is “background signal”. Besides, in data set [17], the “signal and accumulation in the tumors compared with NIR-BG1” value is “much higher signal and extended accumulation”; the “fluorescence of senescent tumor relative to normal tumor” value is reported as 3.06 times; the “fluorescence of CPT treated tumor compared to saline treated tumor” value is recorded as “significantly increased fluorescence”.
With “hydroxymethyl rhodol (HMR) β-galactoside”, in data set [18], the fluorescence turn-on ratio is 1,400 fold.
Consider `CC[C@@]1(O)C(=O)OCc2c1cc1n(c2=O)Cc2cc3ccccc3nc2-1` [CPT, camptothecin], for which the “tumor growth compared to saline only” value in data set [19] was “significantly inhibited”. In addition, in [20], the “p16 and p21 expression compared with normal cells” value is on record as “both increased”; the “β-gal levels compared with the control cells” value is recorded as “elevated”. For the same molecule, in data set [21], the “p16 and p21 expression upon treatment” value is “higher levels”; the “β-gal levels compared with the control cells” value was “elevated”.
